This is an account of results in US9540620B2, “Methods and compositions for modulating G-alpha-Q signaling” (The University of North Carolina at Chapel Hill, priority 2012, dated 2017).

“Also recorded” adds a separate entry of the source. Ends that are not written are not given here. Peptide text beside a SMILES is read from it. * marks the point of attachment. X1 = CN(C)c1ccc2c(-c3ccc(C(=O)*)cc3C(=O)[O-])c3ccc(=[N+](C)C)cc-3oc2c1

For one assay, the target named is activated Gαo (Homo sapiens, UniProt P09471). Nature of the assay: Fluorescence polarization binding of TAMRA-labeled peptide to activated Gαo. (Fluorescence polarisation rises when a labelled molecule tumbles more slowly, as on binding a larger partner.)
Assay [1] concerns the target T1, Gαq activated with aluminum fluoride (Homo sapiens, UniProt P50148).
T1 sequence (P50148 1-359): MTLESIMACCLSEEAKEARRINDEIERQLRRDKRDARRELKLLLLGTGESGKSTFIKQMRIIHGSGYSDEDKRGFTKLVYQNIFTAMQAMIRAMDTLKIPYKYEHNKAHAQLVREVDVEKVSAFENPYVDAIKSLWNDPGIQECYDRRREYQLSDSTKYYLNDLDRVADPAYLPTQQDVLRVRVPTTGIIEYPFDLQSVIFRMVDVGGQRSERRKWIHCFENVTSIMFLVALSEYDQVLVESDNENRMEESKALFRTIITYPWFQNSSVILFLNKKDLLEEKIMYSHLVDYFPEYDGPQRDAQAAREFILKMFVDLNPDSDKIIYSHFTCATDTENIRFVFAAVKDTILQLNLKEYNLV
Nature of the assay: Fluorescence polarization binding of TAMRA-labeled PLC-β3 HTH peptides to Gαq. Particulars: Gαq-GDP without added aluminum fluoride. The protocol: (§1) FIGS. 6A-C. Quantification of Gαq binding to peptides corresponding to the HTH of PLβ3. […] The structures of PLCβ3 (3 OHM) and p63RhoGEF (2RGN) bound to Gαq were superimposed and a single Gαq is shown. Immediately below is shown the sequence alignment of PLCβ3 (SEQ ID NO:37) and p63RhoGEF (SEQ ID NO:41) encompassing the helix-turn-helix. Underlined residues are labeled in the structure. […] (FIG. 6C) Increasing concentrations of unlabeled PLC-β3 were added to a solution of labeled 25-mer (400 nM) and Gαq (4 μM). KD and IC50 values were derived from three independent experiments.

A further assay has as its system activated GαI. The assay is described as follows: Fluorescence polarization binding of TAMRA-labeled peptide to activated Gαi.
The target of another assay is activated Gαs (Homo sapiens, UniProt P63092). The assay is described as follows: Fluorescence polarization binding of TAMRA-labeled peptide to activated Gαs.
For assay [2], the system named is G-alpha-q mediated activation of PLC-beta. Nature of the assay: 5HT2A/DOI-stimulated [3H]inositol phosphate accumulation in transiently transfected HEK293 cells. Particulars: DOI 1-2 microMolar (FIG. 10). The class given is cell-based. The method, then:
FIG. 10. […] HEK293 cells transfected with 100 ng of 5HT2A and stimulated with 1-2 microMolar of DOI (Synonym: (±)-DOI, (±)-1-(2,5-Dimethoxy-4-iodophenyl)-2-aminopropane hydrochloride, (±)-2,5-Dimethoxy-4-iodoamphetamine hydrochloride) were assayed for [^3H]inositol phosphate accumulation. The control for no DOI stimulation for the CFP-HTH-YFP sample is shown as dashed line (A) and triangle (B). Where indicated HEK293 cells were transfected with varying amounts of PLC constructs.
This experiment is a proof of principle to inhibit G-alpha-q with adeno-associated virus (AAV) to treat uveal melanoma patients. Future experiments will use a retrovirus containing the 27 residue helix-turn-helix in primary uveal melanoma cells to induce apoptosis and inhibit the progression of the uveal melanoma.
The 27mer construct used is between two fluorescent proteins YFP and CFP yielding: YFP-HTH(27mer)-CFP. The 27mer sequence is
A CaaX box was attached to the YFP-HTH(27mer)-CFP to keep this molecule at the membrane. The CaaX box sequence is at the very C-terminal end and are the residues CAIL (SEQ ID NO:36).

Another assay concerns Gαq/i. The assay is described as follows: Fluorescence polarization assay in 384 well plates, competition with TAMRA-27-mer. To be noted: 30 μM, 200 nM TAMRA-27-mer, 1.5 μM Gαq/i. Format: binding. The protocol:
FIG. 4. Fluorescence polarization assay in 384 well plates. Each well contains 200 nM TAMRA-27-mer and 1.5 μM Gαq/i. Z′-factor determined using 48 wells+/−aluminum fluoride (AlF4). Unlabeled 27-mer (30 μM) added to an additional 48 wells. Coefficient of variance range between 1 and 4 percent.
To begin to develop a high-throughput format suitable for screening large libraries of compounds, the original fluorescence polarization assay was formatted to use microtiter plates (FIG. 4). The initial reconfiguration to use 384-well plates is highly promising, providing a high dynamic range as defined by the difference in fluorescence polarization of the TAMRA-27-mer in the presence of Gαq-GDP either alone or activated with aluminum fluoride. The high dynamic range combined with low variance produced a Z′-factor of approximately 0.8. An assay with a Z′-factor above 0.5 is generally required for useful high-throughput screening^19; a Z′-factor above 0.8 is generally considered excellent. Moreover, the addition of 30 μM of unlabeled 27-mer competed with the TAMRA-27-mer for binding to Gαq leading to an approximately 50 percent decrease in fluorescence polarization.

The target in a further assay is T2, Gαq (Homo sapiens, UniProt P50148).
T2 sequence (P50148 1-359): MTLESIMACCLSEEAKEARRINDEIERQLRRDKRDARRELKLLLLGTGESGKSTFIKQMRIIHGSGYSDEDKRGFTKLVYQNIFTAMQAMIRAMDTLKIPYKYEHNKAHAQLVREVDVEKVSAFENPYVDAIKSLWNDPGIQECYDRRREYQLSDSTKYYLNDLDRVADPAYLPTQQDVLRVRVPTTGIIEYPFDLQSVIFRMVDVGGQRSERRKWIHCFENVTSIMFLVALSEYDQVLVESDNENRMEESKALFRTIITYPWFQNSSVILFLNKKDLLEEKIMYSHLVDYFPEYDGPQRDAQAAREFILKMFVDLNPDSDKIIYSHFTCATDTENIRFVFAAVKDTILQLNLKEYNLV
The assay is described as follows: Fluorescence polarization competition: unlabeled PLC-β3 against TAMRA-labeled peptide for Gαq. The class given is binding. The method, then:
FIGS. 3A and 3B. TAMRA-27-mer and PLC-β3 directly compete for Gαq. (FIG. 3A) Increasing concentrations of PLC-β3 were added to a solution of TAMRA-27-mer (400 nM) and Gαq (800 nM). The IC50 value is derived from three independent experiments. (FIG. 3B) Phospholipase activity of PLC-β3 activated by Gαq using lipid vesicles and inhibited by increasing concentrations of TAMRA-27-mer.
as §1
Fluorescence polarization will be used to monitor disruption of complex formation between the 27-mer and active Gαq to identify compounds that directly compete with the complex. It is expected that the majority of these compounds will sit within the canonical effector-binding site of Gαq to prevent the binding of peptide—and by extension, prevent the binding of effectors. However, before using this assay format to identify inhibitors of complex formation it was necessary to insure that peptides corresponding to the HTH of PLC-β3 bound to Gαq. […] These experiments strongly support that peptides corresponding to the HTH of PLC-β3 directly bind to the effector pocket of Gαq and can be used as surrogates of effectors in assays of complex formation with active Gαq.
The most promising peptide consisted of 25 residues (TAMRA-25-mer) spanning the entire HTH and bound to G-alpha-q with appreciable affinity (Kd˜6 microMolar).

Chain of activated Gαs (P63092 whole entry): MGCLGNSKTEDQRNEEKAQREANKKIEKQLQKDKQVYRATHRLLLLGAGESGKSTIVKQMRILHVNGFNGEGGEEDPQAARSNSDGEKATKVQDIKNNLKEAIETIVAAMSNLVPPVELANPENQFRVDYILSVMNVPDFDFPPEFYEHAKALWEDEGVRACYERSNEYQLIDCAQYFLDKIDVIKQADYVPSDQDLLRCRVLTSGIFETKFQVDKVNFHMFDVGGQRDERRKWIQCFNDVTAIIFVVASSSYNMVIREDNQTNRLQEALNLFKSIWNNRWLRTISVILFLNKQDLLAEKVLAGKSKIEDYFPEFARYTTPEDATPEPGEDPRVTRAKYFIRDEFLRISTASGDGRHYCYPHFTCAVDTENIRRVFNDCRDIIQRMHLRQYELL
Chain of activated Gαo (P09471 whole entry): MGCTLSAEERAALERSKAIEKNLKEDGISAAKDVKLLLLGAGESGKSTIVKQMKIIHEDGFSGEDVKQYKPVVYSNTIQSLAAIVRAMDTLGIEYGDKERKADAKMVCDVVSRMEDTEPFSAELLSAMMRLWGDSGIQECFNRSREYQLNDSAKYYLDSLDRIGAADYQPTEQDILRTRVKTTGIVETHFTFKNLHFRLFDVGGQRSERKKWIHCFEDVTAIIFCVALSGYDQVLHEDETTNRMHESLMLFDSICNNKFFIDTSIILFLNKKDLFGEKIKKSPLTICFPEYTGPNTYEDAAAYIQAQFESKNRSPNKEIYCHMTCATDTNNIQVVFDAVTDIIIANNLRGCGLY

For the molecule `CC[C@H](C)[C@H](NC(=O)[C@H](CC(C)C)NC(=O)[C@H](C)NC(=O)[C@H](CCC(=O)O)NC(=O)[C@H](C)NC(=O)[C@H](Cc1ccc(O)cc1)NC(=O)[C@H](CC(=O)O)NC(=O)[C@H](CCC(N)=O)NC(=O)[C@H](Cc1c[nH]cn1)NC(=O)c1ccc(-c2c3ccc(=[N+](C)C)cc-3oc3cc(N(C)C)ccc23)c(C(=O)[O-])c1)C(=O)N[C@@H](CC(N)=O)C(=O)N1CCC[C@H]1C(=O)N[C@H](C(=O)N[C@@H](CCCCN)C(=O)N[C@@H](Cc1c[nH]cn1)C(=O)N[C@H](C(=O)N[C@@H](CO)C(=O)N[C@@H](CC(C)C)C(=O)N[C@@H](CCSC)C(=O)N[C@@H](CC(=O)O)C(=O)N[C@@H](CCC(N)=O)C(=O)N[C@@H](CCCNC(=N)N)C(=O)N[C@@H](C)C(=O)N[C@@H](CCCNC(=N)N)C(=O)N[C@@H](CCC(N)=O)C(=O)N[C@@H](CC(C)C)C(=O)O)C(C)C)[C@@H](C)CC` [TAMRA-25-mer] (X1-HQDYAEALINPIKHVSLMDQRARQL-OH; C-terminus assumed), the “binding to activated Gαo” value on activated Gαo is listed as “failed to bind; also recorded: neither activated Gαs, GαI, nor Gαo bound the peptide”. The “complex formation with inactive Gαq-GDP / dependence on aluminum fluoride activation” value in assay [1] is “dependent on the activation of G-alpha-q with aluminum fluoride; also recorded: dependent on the activation of Gαq with aluminum fluoride”. In addition, the “binding to activated Gαi” value in the assay on activated GαI is reported as “failed to bind; also recorded: neither activated Gαs, GαI, nor Gαo bound the peptide”. Moreover, the “binding to activated Gαs” value on activated Gαs is given as “failed to bind; also recorded: neither activated Gαs, GαI, nor Gαo bound the peptide”.
In the case of “CFP-27mer(I860A)-YFP: 27mer HQDYAEALANPIKHVSLMDQRARQLAA between fluorescent proteins YFP and CFP, C-terminal CaaX box CAIL, expressed by transient transfection (HQDYAEALANPIKHVSLMDQRARQLAACAIL; also: fused between fluorescent proteins YFP and CFP)”, the “inhibition of G-alpha-q signaling after transient transfection” value is listed as “inhibits G-alpha-q mediated activation of PLC-beta” in assay [2] and “inhibited G-alpha-q signaling” in assay [2] (listed as 27 residue helix-turn-helix peptide).
For the molecule “HQDYAEALANPIKHVSL-Nle-DQRARQLAA [unlabeled 27-mer]”, the “decrease in fluorescence polarization” value with Gαq/i is “approximately 50%”.

B1: PLC-β3(L859E): mutant full-length PLC-β3 with single substitution L859E in its HTH that does not bind Gαq (protein)
chain: AGAQPGVHALQLEPPTVVETLRRGSKFIKWDEETSSRNLVTLRVDPNGFFLYWTGPNMEVDTLDISSIRDTRTGRYARLPKDPKIREVLGFGGPDARLEEKLMTVVSGPDPVNTVFLNFMAVQDDTAKVWSEELFKLAMNILAQNASRNTFLRKAYTKLKLQVNQDGRIPVKNILKMFSADKKRVETALESCGLKFNRSESIRPDEFSLEIFERFLNKLCLRPDIDKILLEIGAKGKPYLTLEQLMDFINQKQRDPRLNEVLYPPLRPSQARLLIEKYEPNQQFLERDQMSMEGFSRYLGGEENGILPLEALDLSTDMTQPLSAYFINSSHNTYLTAGQLAGTSSVEMYRQALLWGCRCVELDVWKGRPPEEEPFITHGFTMTTEVPLRDVLEAIAETAFKTSPYPVILSFENHVDSAKQQAKMAEYCRSIFGDALLIEPLDKYPLAPGVPLPSPQDLMGRILVKNKKRHRPSAGGPDSAGRKRPLEQSNSALSESSAATEPSSPQLGSPSSDSCPGLSNGEEVGLEKPSLEPQKSLGDEGLNRGPYVLGPADREDEEEDEEEEEQTDPKKPTTDEGTASSEVNATEEMSTLVNYIEPVKFKSFEAARKRNKCFEMSSFVETKAMEQLTKSPMEFVEYNKQQLSRIYPKGTRVDSSNYMPQLFWNVGCQLVALNFQTLDVAMQLNAGVFEYNGRSGYLLKPEFMRRPDKSFDPFTEVIVDGIVANALRVKVISGQFLSDRKVGIYVEVDMFGLPVDTRRKYRTRTSQGNSFNPVWDEEPFDFPKVVLPTLASLRIAAFEEGGKFVGHRILPVSAIRSGYHYVCLRNEANQPLCLPALLIYTEASDYIPDDHQDYAEAEINPIKHVSLMDQRARQLAALIGESEAQAGQETCQDTQSQQLGSQPSSNPTPSPLDASPRRPPGPTTSPASTSLSSPGQRDDLIASILSEVAPTPLDELRGHKALVKLRSRQERDLRELRKKHQRKAVTLTRRLLDGLAQAQAEGRCRLRPGALGGAADVEDTKEGEDEAKRYQEFQNRQVQSLLELREAQVDAEAQRRLEHLRQALQRLREVVLDANTTQFKRLKEMNEREKKELQKILDRKRHNSISEAKMRDKHKKEAELTEINRRHITESVNSIRRLEEAQKQRHDRLVAGQQQVLQQLAEEEPKLLAQLAQECQEQRARLPQEIRRSLLGEMPEGLGDGPLVACASNGHAPGSSGHLSGADSESQEENTQL
Regarding B1, the “competition with the 27-mer for binding to Gαq” value in the assay with Gαq (TAMRA-27-mer 400 nM, Gαq 800 nM) is “could not compete”. The “effect on TAMRA-25-mer binding to Gαq” value with Gαq (at concentrations as high as 35 μM) is “no effect”.
